Measured values taken from patent US20200306216A1, “CURE FOR ALZHEIMER'S DISEASE” (priority 2019, published 2020).

Experiment: Single-patient clinical case: combination therapy for Alzheimer's disease
Type: in vivo, human
Details: overall outcome as stated by applicant
Experimental: A patient suffering from significant memory loss and vision loss was evaluated for treatment. The patient suffered a gradual decline in both short-term and long-term memory over at least three years. The patient also complained about vision loss over a period of about six years. The patient scored 11 out of 30 on a mental status exam, indicating dementia or other cognitive impairment. A clinical psychologist determined that the patient was oriented to person, but poorly oriented to place and time. […] The patient acknowledged having anger problems. The patent denied having anxiety, mania, or depression but acknowledged occasional suicidal ideation. They denied having any current intent to harm […]. The patient's spouse reported that the patient would sometimes sit and rock back-and-forth. They also reported that the patient would sometimes hit their head when upset. There was no evidence that the patient suffered from delusions or hallucinations, and there was no evidence of agnosia. The patient previously had coronary artery bypass surgery and also suffered from type 2 diabetes mellitus for multiple decades. […] The patient also suffered from hepatitis C, but was not previously treated. It was determined that the patient was only able to perceive light in both eyes. The patient's loss of vision was due to glaucoma and diabetic retinopathy. […]

COc1cc2c(cc1OC)C(=O)C(CC1CCN(Cc3ccccc3)CC1)C2 (centres unmarked) [donepezil]
outcome of treatment of Alzheimer's disease: unsuccessful

CC12CC3CC(C)(C1)CC(N)(C3)C2 [memantine]
outcome of treatment of Alzheimer's disease: unsuccessful
